SMILES strings stand for the structures.

As a reminder, the IC50 is the concentration at which inhibition is half-maximal.

One assay has as its system SW-620. Description: Cytotoxicity against human SW620 cells assessed as cell growth inhibition incubated for 48 hrs by MTT assay. In kind it is functional, cell-based. As to conditions: SW-620, 48 h. Background: Tetrazolium assays rely on reduction of a dye to a coloured formazan, in cell work by metabolically active cells.
In the case of `CO[C@@]12c3c(C)cc(O)c4c(=O)n([C@H]5CO[C@H](CO)[C@@H](O)[C@@H]5O)cc(c34)C(=O)[C@@H]1[C@]13COC(=O)c4c(O)cc(C)c(c41)C(=O)[C@H]2[C@@H]3OC(C)=O`, the IC50 is over 30 µM.
On the same count and under the same terms, the same measure for `CO[C@@]12c3c(C)cc(O)c4c(=O)occ(c34)C(=O)[C@@H]1[C@]13COC(=O)c4c(O)cc(C)c(c41)C(=O)C2[C@@H]3OC(C)=O`: over 30 µM; for `CC(=O)O[C@H]1[C@@H]2C(=O)c3c(C)cc(O)c4c3[C@@]1(COC4=O)C1=C2c2c(C)cc(O)c3c(=O)n([C@H]4CO[C@H](CO)[C@@H](O)[C@@H]4O)cc(c23)C1=O`: over 30 µM.
Regarding `CO[C@@]12c3c(C)cc(O)c4c(=O)n([C@H]5CO[C@H](CO)[C@@H](O)[C@@H]5O)cc(c34)C(=O)[C@@H]1[C@]13COC(=O)c4c(O)cc(C)c(c41)C(=O)[C@H]2[C@@H]3O`, the IC50 is over 30 µM.
On the same count and under the same terms, next, `CC(=O)OC[C@H]1OC[C@H](n2cc3c4c(c(C)cc(O)c4c2=O)C2=C(C3=O)[C@]34COC(=O)c5c(O)cc(C)c(c53)C(=O)[C@H]2[C@@H]4OC(C)=O)[C@@H](O)[C@@H]1O`: over 30 µM.
For `Cc1cc(O)c2c3c1C(=O)[C@@H]1C4=C(C(=O)c5cn([C@H]6CO[C@H](CO)[C@@H](O)[C@@H]6O)c(=O)c6c(O)cc(C)c4c56)[C@@]3(COC2=O)[C@H]1O`, the half-maximal inhibitory concentration (IC50) was over 30 µM.

A further assay deals with NCI-H460. Description: Cytotoxicity against human NCI-H460 cells assessed as cell growth inhibition incubated for 48 hrs by MTT assay. In kind it is functional, cell-based. Conditions: NCI-H460, 48 h.
Take `CO[C@@]12c3c(C)cc(O)c4c(=O)n([C@H]5CO[C@H](CO)[C@@H](O)[C@@H]5O)cc(c34)C(=O)[C@@H]1[C@]13COC(=O)c4c(O)cc(C)c(c41)C(=O)[C@H]2[C@@H]3OC(C)=O`: the IC50 is over 30 µM.
As for `CO[C@@]12c3c(C)cc(O)c4c(=O)occ(c34)C(=O)[C@@H]1[C@]13COC(=O)c4c(O)cc(C)c(c41)C(=O)C2[C@@H]3OC(C)=O`, the half-inhibitory concentration (IC50) was over 30 µM.
As to `CC(=O)O[C@H]1[C@@H]2C(=O)c3c(C)cc(O)c4c3[C@@]1(COC4=O)C1=C2c2c(C)cc(O)c3c(=O)n([C@H]4CO[C@H](CO)[C@@H](O)[C@@H]4O)cc(c23)C1=O`, the IC50 was over 30 µM.
Take `CO[C@@]12c3c(C)cc(O)c4c(=O)n([C@H]5CO[C@H](CO)[C@@H](O)[C@@H]5O)cc(c34)C(=O)[C@@H]1[C@]13COC(=O)c4c(O)cc(C)c(c41)C(=O)[C@H]2[C@@H]3O`: the IC50 was over 30 µM.
Regarding `CC(=O)OC[C@H]1OC[C@H](n2cc3c4c(c(C)cc(O)c4c2=O)C2=C(C3=O)[C@]34COC(=O)c5c(O)cc(C)c(c53)C(=O)[C@H]2[C@@H]4OC(C)=O)[C@@H](O)[C@@H]1O`, the IC50 was over 30 µM.
`Cc1cc(O)c2c3c1C(=O)[C@@H]1C4=C(C(=O)c5cn([C@H]6CO[C@H](CO)[C@@H](O)[C@@H]6O)c(=O)c6c(O)cc(C)c4c56)[C@@]3(COC2=O)[C@H]1O`: the IC50 is over 30 µM.

The subject of a further assay is Candida albicans. Description: Antifungal activity against Candida albicans ATCC10231 assessed as fungal growth inhibition incubated for 24 hrs by spectrophotometric analysis. In kind it is functional, organism-based. As to conditions: ATCC10231, 24 h.
In the case of `CO[C@@]12c3c(C)cc(O)c4c(=O)n([C@H]5CO[C@H](CO)[C@@H](O)[C@@H]5O)cc(c34)C(=O)[C@@H]1[C@]13COC(=O)c4c(O)cc(C)c(c41)C(=O)[C@H]2[C@@H]3OC(C)=O`, the IC50 is over 30 µM.
Regarding `CO[C@@]12c3c(C)cc(O)c4c(=O)occ(c34)C(=O)[C@@H]1[C@]13COC(=O)c4c(O)cc(C)c(c41)C(=O)C2[C@@H]3OC(C)=O`, the IC50 was over 30 µM.
The same measure, in the same setting: next, `CC(=O)O[C@H]1[C@@H]2C(=O)c3c(C)cc(O)c4c3[C@@]1(COC4=O)C1=C2c2c(C)cc(O)c3c(=O)n([C@H]4CO[C@H](CO)[C@@H](O)[C@@H]4O)cc(c23)C1=O`: over 30 µM.
Same read-out and setting: the same measure for `CO[C@@]12c3c(C)cc(O)c4c(=O)n([C@H]5CO[C@H](CO)[C@@H](O)[C@@H]5O)cc(c34)C(=O)[C@@H]1[C@]13COC(=O)c4c(O)cc(C)c(c41)C(=O)[C@H]2[C@@H]3O`: over 30 µM.
For the molecule `CC(=O)OC[C@H]1OC[C@H](n2cc3c4c(c(C)cc(O)c4c2=O)C2=C(C3=O)[C@]34COC(=O)c5c(O)cc(C)c(c53)C(=O)[C@H]2[C@@H]4OC(C)=O)[C@@H](O)[C@@H]1O`, the IC50 is over 30 µM.
For the molecule `Cc1cc(O)c2c3c1C(=O)[C@@H]1C4=C(C(=O)c5cn([C@H]6CO[C@H](CO)[C@@H](O)[C@@H]6O)c(=O)c6c(O)cc(C)c4c56)[C@@]3(COC2=O)[C@H]1O`, the IC50 is over 30 µM.

A further assay has as its system Escherichia coli. Description: Antibacterial activity against gram negative Escherichia coli ATCC11775 assessed as bacterial growth inhibition incubated for 24 hrs by spectrophotometric analysis. Type of assay: functional, organism-based. As to conditions: ATCC11775, 24 h.
Turning to `CO[C@@]12c3c(C)cc(O)c4c(=O)n([C@H]5CO[C@H](CO)[C@@H](O)[C@@H]5O)cc(c34)C(=O)[C@@H]1[C@]13COC(=O)c4c(O)cc(C)c(c41)C(=O)[C@H]2[C@@H]3OC(C)=O`, the IC50 is over 30 µM.
Still for that read-out and setting: next, `CO[C@@]12c3c(C)cc(O)c4c(=O)occ(c34)C(=O)[C@@H]1[C@]13COC(=O)c4c(O)cc(C)c(c41)C(=O)C2[C@@H]3OC(C)=O`: over 30 µM.
For `CC(=O)O[C@H]1[C@@H]2C(=O)c3c(C)cc(O)c4c3[C@@]1(COC4=O)C1=C2c2c(C)cc(O)c3c(=O)n([C@H]4CO[C@H](CO)[C@@H](O)[C@@H]4O)cc(c23)C1=O`, the IC50 is over 30 µM.
For the molecule `CO[C@@]12c3c(C)cc(O)c4c(=O)n([C@H]5CO[C@H](CO)[C@@H](O)[C@@H]5O)cc(c34)C(=O)[C@@H]1[C@]13COC(=O)c4c(O)cc(C)c(c41)C(=O)[C@H]2[C@@H]3O`, the concentration for half-maximal inhibition (IC50) is over 30 µM.
As to `CC(=O)OC[C@H]1OC[C@H](n2cc3c4c(c(C)cc(O)c4c2=O)C2=C(C3=O)[C@]34COC(=O)c5c(O)cc(C)c(c53)C(=O)[C@H]2[C@@H]4OC(C)=O)[C@@H](O)[C@@H]1O`, the IC50 was over 30 µM.
For `Cc1cc(O)c2c3c1C(=O)[C@@H]1C4=C(C(=O)c5cn([C@H]6CO[C@H](CO)[C@@H](O)[C@@H]6O)c(=O)c6c(O)cc(C)c4c56)[C@@]3(COC2=O)[C@H]1O`, the IC50 was over 30 µM.

For another assay, the system named is Staphylococcus aureus. Description: Antibacterial activity against gram positive Staphylococcus aureus ATCC25923 assessed as bacterial growth inhibition incubated for 24 hrs by spectrophotometric analysis. Type of assay: functional, organism-based. As to conditions: ATCC25923, 24 h.
As for `CO[C@@]12c3c(C)cc(O)c4c(=O)n([C@H]5CO[C@H](CO)[C@@H](O)[C@@H]5O)cc(c34)C(=O)[C@@H]1[C@]13COC(=O)c4c(O)cc(C)c(c41)C(=O)[C@H]2[C@@H]3OC(C)=O`, the IC50 was over 30 µM.
Regarding `CO[C@@]12c3c(C)cc(O)c4c(=O)occ(c34)C(=O)[C@@H]1[C@]13COC(=O)c4c(O)cc(C)c(c41)C(=O)C2[C@@H]3OC(C)=O`, the IC50 was over 30 µM.
Consider `CC(=O)O[C@H]1[C@@H]2C(=O)c3c(C)cc(O)c4c3[C@@]1(COC4=O)C1=C2c2c(C)cc(O)c3c(=O)n([C@H]4CO[C@H](CO)[C@@H](O)[C@@H]4O)cc(c23)C1=O`, for which the IC50 was over 30 µM.
Same read-out and setting: next, `CO[C@@]12c3c(C)cc(O)c4c(=O)n([C@H]5CO[C@H](CO)[C@@H](O)[C@@H]5O)cc(c34)C(=O)[C@@H]1[C@]13COC(=O)c4c(O)cc(C)c(c41)C(=O)[C@H]2[C@@H]3O`: over 30 µM; `CC(=O)OC[C@H]1OC[C@H](n2cc3c4c(c(C)cc(O)c4c2=O)C2=C(C3=O)[C@]34COC(=O)c5c(O)cc(C)c(c53)C(=O)[C@H]2[C@@H]4OC(C)=O)[C@@H](O)[C@@H]1O`: over 30 µM; `Cc1cc(O)c2c3c1C(=O)[C@@H]1C4=C(C(=O)c5cn([C@H]6CO[C@H](CO)[C@@H](O)[C@@H]6O)c(=O)c6c(O)cc(C)c4c56)[C@@]3(COC2=O)[C@H]1O`: over 30 µM.
